Measured values reported in article PMC5290327, “SC83288 is a clinical development candidate for the treatment of severe malaria” (Nature Communications, 2017).
Entries after “also recorded” stand apart in the source; their conditions may differ. Where two headings read alike, the source gives them in different places.

Key:
in vivo = assay type: in vivo, rat; settings: for C0: rat, in vivo, iv; for ALB / ALB/GLOB / ALP / ALT / AMY / AST / BUN / BUN/CREA / CA / CK / CRE / EOS / GLOB / GLU / HCT / HGB / K+ / MCH / MCHC / MCV / MPV / NA+ / NA/K / PHOS / PLT / RBC / RDW / TBIL / TP / WBC: 24h
Method: The maximal-tolerated i.v. bolus dose of SC83288 was at 30 mg kg^−1 body weight (extrapolated initial drug plasma concentration C0 of 65,600 ng ml^−1) and 15 mg kg^−1 body weight (C0 of 27,300 ng ml^−1) in rats and mice, respectively. Observed adverse effects included ataxia, respiratory symptoms and sleepiness. However, all treated animals fully recovered within 30 min after drug application. […] Increasing the dose to 45 mg kg^−1 body weight caused apnoea in rats. The no-observed-adverse-effect level and the no-observed-effect level in rats corresponded to a tested i.v. bolus dose of 22.5 mg kg^−1 body weight (C0 of 49,200 ng ml^−1) and 15 mg kg^−1 body weight (C0 of 32,800 ng ml^−1), respectively.
On the treatment day, all animals were weighed and the dosing volume was calculated for each individual animal according to its actual body weight. All animal were dosed once. Blood samples were taken at different time points and plasma was collected after centrifugation (10,000g, 10 min, 4 °C). Plasma samples were analysed by LC–MS/MS. […] All relevant observations were recorded. The PK studies in cynomolgus monkeys and beagle dogs were performed by the Laboratory of Pharmacology and Toxicology (LPT), Hamburg, and PK and toxicity studies in mice and rats were performed by the 4SC Discovery GmbH, Munich. PK parameters were obtained by a non-compartment analysis, using Kinetica 4.1 (Thermo Scientific).

P. falciparum strain 3D7 = experiment: Efficacy in the Pf/NSG mouse model; assay type: in vivo, Plasmodium falciparum; settings: 3D7, humanized NSG mouse
GAK = biological target: T1, GAK (Homo sapiens, UniProt O14976); experiment: KINOMEscan; assay type: binding; settings: read-out: Remaining enzyme activity
T1 construct: purchased Ambit (DiscoverX) KINOMEscan; Cerep
T1 sequence (O14976 whole entry): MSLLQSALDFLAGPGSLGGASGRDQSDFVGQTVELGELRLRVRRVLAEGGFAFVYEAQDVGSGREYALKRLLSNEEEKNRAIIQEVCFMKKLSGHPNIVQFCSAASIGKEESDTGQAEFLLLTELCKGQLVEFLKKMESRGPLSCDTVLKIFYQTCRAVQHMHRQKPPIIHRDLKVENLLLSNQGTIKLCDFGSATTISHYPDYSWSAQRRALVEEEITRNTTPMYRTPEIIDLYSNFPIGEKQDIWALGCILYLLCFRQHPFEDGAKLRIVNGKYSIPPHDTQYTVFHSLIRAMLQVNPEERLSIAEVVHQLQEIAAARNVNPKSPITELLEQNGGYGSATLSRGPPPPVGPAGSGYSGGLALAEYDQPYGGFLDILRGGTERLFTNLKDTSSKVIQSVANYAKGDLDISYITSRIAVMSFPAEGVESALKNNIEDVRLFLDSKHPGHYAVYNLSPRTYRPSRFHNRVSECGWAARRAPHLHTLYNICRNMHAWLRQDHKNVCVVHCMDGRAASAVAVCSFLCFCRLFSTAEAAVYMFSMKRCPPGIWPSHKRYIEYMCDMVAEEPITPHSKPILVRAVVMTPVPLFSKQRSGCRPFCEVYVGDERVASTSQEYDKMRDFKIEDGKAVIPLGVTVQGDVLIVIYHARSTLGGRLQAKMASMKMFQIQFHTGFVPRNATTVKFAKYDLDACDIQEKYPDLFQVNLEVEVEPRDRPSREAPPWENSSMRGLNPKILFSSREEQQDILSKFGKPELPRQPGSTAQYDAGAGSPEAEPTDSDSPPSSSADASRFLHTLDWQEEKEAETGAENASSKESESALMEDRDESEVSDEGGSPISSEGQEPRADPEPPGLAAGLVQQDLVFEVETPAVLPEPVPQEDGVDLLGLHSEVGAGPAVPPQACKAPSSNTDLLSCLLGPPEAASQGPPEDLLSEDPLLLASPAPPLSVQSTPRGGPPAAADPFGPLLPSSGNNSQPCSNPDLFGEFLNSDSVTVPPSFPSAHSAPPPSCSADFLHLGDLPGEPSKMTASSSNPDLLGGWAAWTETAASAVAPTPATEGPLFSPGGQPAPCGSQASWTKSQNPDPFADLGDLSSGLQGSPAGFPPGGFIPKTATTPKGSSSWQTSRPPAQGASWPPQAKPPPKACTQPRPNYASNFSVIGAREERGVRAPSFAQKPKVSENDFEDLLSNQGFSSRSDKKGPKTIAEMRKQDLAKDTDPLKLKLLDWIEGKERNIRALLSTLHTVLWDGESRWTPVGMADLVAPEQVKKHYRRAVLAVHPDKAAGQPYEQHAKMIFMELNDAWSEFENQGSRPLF
Method: (§1) The KINOMEscan was carried out by Ambit (San Diego, USA) according to a previously established protocol. The experiment was based on a competition binding assay that quantitatively measures the ability of a compound to compete with an immobilized, active-site directed ligand. The assay is performed by combining three components: DNA-tagged kinase; immobilized ligand; and a test compound. The ability of the test compound to compete with the immobilized ligand is measured via quantitative PCR of the DNA tag.
(§2) For most assays, kinase-tagged T7 phage strains were grown in parallel in 24-well blocks in an Escherichia coli host derived from the BL21 strain. E. coli were grown to log-phase and infected with T7 phage from a frozen stock and incubated with shaking at 32 °C until lysis (90–150 min). The lysates were centrifuged (6,000g) and filtered (0.2 μm) to remove cell debris. The remaining kinases were produced in HEK-293 cells (Sigma Aldrich, catalogue number: 85120602) and subsequently tagged with DNA for quantitative PCR detection. […] The liganded beads were blocked with excess biotin and washed with blocking buffer (SeaBlock (Pierce), 1% bovine serum albumin, 0.05% Tween 20 and 1 mM dithiothreitol) to remove unbound ligand and to reduce non-specific phage binding. […] SC81458 was prepared as 40x stock in 100% DMSO and directly diluted into the assay to a final concentration of 10 μM. All reactions were performed in polypropylene 384-well plates in a final volume of 0.04 ml. […] The kinase concentration in the eluates was measured by quantitative PCR.

SIK = biological target: T2, SIK (Homo sapiens, UniProt P57059); experiment: KINOMEscan; assay type: binding; settings: read-out: Remaining enzyme activity
T2 construct: purchased Ambit (DiscoverX) KINOMEscan; Cerep
T2 sequence (P57059 whole entry): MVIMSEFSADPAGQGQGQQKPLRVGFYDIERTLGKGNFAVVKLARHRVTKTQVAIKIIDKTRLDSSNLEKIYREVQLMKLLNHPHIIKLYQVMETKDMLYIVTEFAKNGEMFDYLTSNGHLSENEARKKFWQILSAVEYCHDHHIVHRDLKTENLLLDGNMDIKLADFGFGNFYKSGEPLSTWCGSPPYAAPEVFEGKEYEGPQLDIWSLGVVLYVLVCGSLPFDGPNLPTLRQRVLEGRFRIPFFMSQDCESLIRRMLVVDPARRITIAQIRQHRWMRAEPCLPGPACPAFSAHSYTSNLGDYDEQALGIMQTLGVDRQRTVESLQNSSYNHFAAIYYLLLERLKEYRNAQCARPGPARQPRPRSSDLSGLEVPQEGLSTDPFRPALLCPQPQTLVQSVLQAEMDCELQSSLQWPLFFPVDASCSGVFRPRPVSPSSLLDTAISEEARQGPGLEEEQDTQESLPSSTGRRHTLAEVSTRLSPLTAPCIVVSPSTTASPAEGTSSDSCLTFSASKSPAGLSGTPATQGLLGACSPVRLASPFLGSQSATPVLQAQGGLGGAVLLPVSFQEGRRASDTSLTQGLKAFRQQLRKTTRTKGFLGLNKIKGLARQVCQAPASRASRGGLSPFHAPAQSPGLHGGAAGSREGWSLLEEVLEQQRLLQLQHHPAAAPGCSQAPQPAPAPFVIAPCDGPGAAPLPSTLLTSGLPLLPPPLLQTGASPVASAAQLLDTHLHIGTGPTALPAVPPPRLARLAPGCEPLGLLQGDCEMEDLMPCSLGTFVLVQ
Method: as §1, §2

Compound: COC(=O)N1CCN(C(=N)c2cccc(NC(=O)Nc3ccc(S(=O)(=O)NCc4ccc(S(N)(=O)=O)cc4)cc3)c2)CC1 [SC83288, methyl 4-(imino(3-(3-(4-(N-(4-sulfamoylbenzyl)sulfamoyl)phenyl)ureido)phenyl)methyl) piperazine-1-carboxylate]
- haematological and clinical biochemical parameters (in vivo; 24 h post application): remained within normal range
- safety margin (in vivo; projected dosing regimen vs i.v. NOAEL in rats): ~55 fold
- C0 (in vivo; rats, 15 mg kg^−1 i.v. bolus (NOEL), read-out: extrapolated C0): 32800 ng/mL
- C0 (in vivo; rats, 22.5 mg kg^−1 i.v. bolus (NOAEL), read-out: extrapolated C0): 49200 ng/mL
- C0 (in vivo; rats, 30 mg kg^−1 i.v. bolus, read-out: extrapolated initial drug plasma concentration C0): 65600 ng/mL
- maximal-tolerated i.v. bolus dose (in vivo; rats): 30 mg kg^−1 body weight
- time to full recovery after drug application (in vivo; rats and mice at maximal-tolerated dose): ≤ 30 min
- adverse effect (in vivo; rats, 45 mg kg^−1 body weight): apnea; also recorded: apnoea
- ALB (in vivo; rats, 15 mg/kg): 4.9 g/dL
- ALB/GLOB (in vivo; rats, 15 mg/kg): 5.5 g/dL
- ALP (in vivo; rats, 15 mg/kg): 306 U l-1
- ALT (in vivo; rats, 15 mg/kg): 51 U l-1
- AMY (in vivo; rats, 15 mg/kg): 909 U l-1
- AST (in vivo; rats, 15 mg/kg): 70 U l-1
- BUN (in vivo; rats, 15 mg/kg): 14.7 mg/dL
- BUN/CREA (in vivo; rats, 15 mg/kg): 66.7 mg/dL
- CA (in vivo; rats, 15 mg/kg): 11.0 mg/dL
- CK (in vivo; rats, 15 mg/kg): 176 U l-1
- CRE (in vivo; rats, 15 mg/kg): 0.2 mg/dL
- EOS (in vivo; rats, 15 mg/kg): 0.4%
- GLOB (in vivo; rats, 15 mg/kg): 0.9 g/dL
- GLU (in vivo; rats, 15 mg/kg): 202 mg/dL
- HCT (in vivo; rats, 15 mg/kg): 40.9%
- HGB (in vivo; rats, 15 mg/kg): 14.3 g/dL
- K+ (in vivo; rats, 15 mg/kg): 5.1 mmol/L
- MCH (in vivo; rats, 15 mg/kg): 20.5 pg
- MCHC (in vivo; rats, 15 mg/kg): 35.1 g/dL
- MCV (in vivo; rats, 15 mg/kg): 58 µm3
- MPV (in vivo; rats, 15 mg/kg): 5.7 µm3
- NA+ (in vivo; rats, 15 mg/kg): 136 mmol/L
- NA/K (in vivo; rats, 15 mg/kg): 26.7 mmol/L
- PHOS (in vivo; rats, 15 mg/kg): 9.4 mg/dL
- PLT (in vivo; rats, 15 mg/kg): 812 103 mm-3
- RBC (in vivo; rats, 15 mg/kg): 7.00 103 mm-3
- RDW (in vivo; rats, 15 mg/kg): 13.3%
- TBIL (in vivo; rats, 15 mg/kg): 0.4 mg/dL
- TP (in vivo; rats, 15 mg/kg): 5.8 g/dL
- WBC (in vivo; rats, 15 mg/kg): 16.7 103 mm-3
- ALB (in vivo; rats, 22.5 mg/kg): 5.0 g/dL
- ALB/GLOB (in vivo; rats, 22.5 mg/kg): 6.7 g/dL
- ALP (in vivo; rats, 22.5 mg/kg): 399 U l-1
- ALT (in vivo; rats, 22.5 mg/kg): 58 U l-1
- AMY (in vivo; rats, 22.5 mg/kg): 921 U l-1
- AST (in vivo; rats, 22.5 mg/kg): 79 U l-1
- BUN (in vivo; rats, 22.5 mg/kg): 17.5 mg/dL
- BUN/CREA (in vivo; rats, 22.5 mg/kg): 72.5 mg/dL
- CA (in vivo; rats, 22.5 mg/kg): 11.0 mg/dL
- CK (in vivo; rats, 22.5 mg/kg): 97 U l-1
- CRE (in vivo; rats, 22.5 mg/kg): 0.3 mg/dL
- EOS (in vivo; rats, 22.5 mg/kg): 0.3%
- GLOB (in vivo; rats, 22.5 mg/kg): 0.8 g/dL
- GLU (in vivo; rats, 22.5 mg/kg): 160 mg/dL
- HCT (in vivo; rats, 22.5 mg/kg): 39.6%
- HGB (in vivo; rats, 22.5 mg/kg): 14.2 g/dL
- K+ (in vivo; rats, 22.5 mg/kg): 5.3 mmol/L
- MCH (in vivo; rats, 22.5 mg/kg): 21.0 pg
- MCHC (in vivo; rats, 22.5 mg/kg): 35.9 g/dL
- MCV (in vivo; rats, 22.5 mg/kg): 59 µm3
- MPV (in vivo; rats, 22.5 mg/kg): 5.9 µm3
- NA+ (in vivo; rats, 22.5 mg/kg): 135 mmol/L
- NA/K (in vivo; rats, 22.5 mg/kg): 25.7 mmol/L
- PHOS (in vivo; rats, 22.5 mg/kg): 9.2 mg/dL
- PLT (in vivo; rats, 22.5 mg/kg): 847 103 mm-3
- RBC (in vivo; rats, 22.5 mg/kg): 6.77 103 mm-3
- RDW (in vivo; rats, 22.5 mg/kg): 13.3%
- TBIL (in vivo; rats, 22.5 mg/kg): 0.3 mg/dL
- TP (in vivo; rats, 22.5 mg/kg): 5.7 g/dL
- WBC (in vivo; rats, 22.5 mg/kg): 14.3 103 mm-3
- ALB (in vivo; rats, 30 mg/kg): 5.4 g/dL
- ALB/GLOB (in vivo; rats, 30 mg/kg): 8.9 g/dL
- ALP (in vivo; rats, 30 mg/kg): 424 U l-1
- ALT (in vivo; rats, 30 mg/kg): 58 U l-1
- AMY (in vivo; rats, 30 mg/kg): 962 U l-1
- AST (in vivo; rats, 30 mg/kg): 85 U l-1
- BUN (in vivo; rats, 30 mg/kg): 15.7 mg/dL
- BUN/CREA (in vivo; rats, 30 mg/kg): 78.3 mg/dL
- CA (in vivo; rats, 30 mg/kg): 11.2 mg/dL
- CK (in vivo; rats, 30 mg/kg): 91 U l-1
- CRE (in vivo; rats, 30 mg/kg): 0.2 mg/dL
- EOS (in vivo; rats, 30 mg/kg): 0.3%
- GLOB (in vivo; rats, 30 mg/kg): 0.6 g/dL
- GLU (in vivo; rats, 30 mg/kg): 170 mg/dL
- HCT (in vivo; rats, 30 mg/kg): 40.1%
- HGB (in vivo; rats, 30 mg/kg): 14.3 g/dL
- K+ (in vivo; rats, 30 mg/kg): 5.4 mmol/L
- MCH (in vivo; rats, 30 mg/kg): 20.5 pg
- MCHC (in vivo; rats, 30 mg/kg): 35.8 g/dL
- MCV (in vivo; rats, 30 mg/kg): 57 µm3
- MPV (in vivo; rats, 30 mg/kg): 5.7 µm3
- NA+ (in vivo; rats, 30 mg/kg): 136 mmol/L
- NA/K (in vivo; rats, 30 mg/kg): 25.2 mmol/L
- PHOS (in vivo; rats, 30 mg/kg): 9.0 mg/dL
- PLT (in vivo; rats, 30 mg/kg): 869 103 mm-3
- RBC (in vivo; rats, 30 mg/kg): 7.00 103 mm-3
- RDW (in vivo; rats, 30 mg/kg): 13.4%
- TBIL (in vivo; rats, 30 mg/kg): 0.3 mg/dL
- TP (in vivo; rats, 30 mg/kg): 6.0 g/dL
- WBC (in vivo; rats, 30 mg/kg): 11.2 103 mm-3
- no-observed-adverse-effect level (in vivo; rats, i.v. bolus): 22.5 mg kg^−1 body weight
- no-observed-effect level (in vivo; rats, i.v. bolus): 15 mg kg^−1 body weight

Compound: CCCCN1CCN(C(=N)c2cccc(NC(=O)Nc3ccc(S(=O)(=O)NCc4ccc(S(N)(=O)=O)cc4)cc3)c2)CC1 [SC81458, 4-(3-(3-((4-butylpiperazin-1-yl)(imino)methyl)phenyl)ureido)-N-(4-sulfamoylbenzyl) benzenesulfonamide]
- In vivo logPRR (P. falciparum strain 3D7): 3.2
- remaining binding at 10 µM (GAK): 92%
- remaining binding at 10 µM (SIK): 97%
